For data set [1], the target named is DNA topoisomerase 2-alpha (Homo sapiens) (UniProt P11388). In words: Inhibition of Top2 (unknown origin) mediated supercoiled DNA relaxation at 100 uM.
Data set [2] has as its target Voltage-gated inwardly rectifying potassium channel KCNH2 (Homo sapiens, UniProt Q12809). Kind of data set: Inhibition of human ERG expressed in CHO cells by patch-clamp electrophysiology method. The format is cell-based.
In a further data set the target is Cytochrome P450 3A4 (Homo sapiens, UniProt P08684). In words: Inhibition of CYP3A4 (unknown origin). It counts as ADME.
A short description of data set [3]: Oral bioavailability in Sprague-Dawley rat at 5 mg/kg after 24 hrs by LC-MS/MS analysis. The format is ADME, organism-based. The conditions noted are these: in vivo.
Data set [4] can be described thus: Tmax in Sprague-Dawley rat at 5 mg/kg, po after 24 hrs by LC-MS/MS analysis. It counts as ADME, organism-based. The note with it: in vivo.
Data set [5] can be described thus: AUC (0 to t) in Sprague-Dawley rat at 5 mg/kg, po after 24 hrs by LC-MS/MS analysis. The format is ADME, organism-based. Also on record: route oral, time 24 hrs, dose 5 mg/kg. The note with it: in vivo.
The next data set relates to Rattus norvegicus. In words: Suppression of hypertension pressure in Wistar rat model of pulmonary hypertension at 20 mg/kg/day, po for 3 weeks. It counts as functional, organism-based.
A further data set deals with T1, Cytochrome P450 2B6 (Homo sapiens, UniProt P20813).
T1 sequence (P20813 whole entry): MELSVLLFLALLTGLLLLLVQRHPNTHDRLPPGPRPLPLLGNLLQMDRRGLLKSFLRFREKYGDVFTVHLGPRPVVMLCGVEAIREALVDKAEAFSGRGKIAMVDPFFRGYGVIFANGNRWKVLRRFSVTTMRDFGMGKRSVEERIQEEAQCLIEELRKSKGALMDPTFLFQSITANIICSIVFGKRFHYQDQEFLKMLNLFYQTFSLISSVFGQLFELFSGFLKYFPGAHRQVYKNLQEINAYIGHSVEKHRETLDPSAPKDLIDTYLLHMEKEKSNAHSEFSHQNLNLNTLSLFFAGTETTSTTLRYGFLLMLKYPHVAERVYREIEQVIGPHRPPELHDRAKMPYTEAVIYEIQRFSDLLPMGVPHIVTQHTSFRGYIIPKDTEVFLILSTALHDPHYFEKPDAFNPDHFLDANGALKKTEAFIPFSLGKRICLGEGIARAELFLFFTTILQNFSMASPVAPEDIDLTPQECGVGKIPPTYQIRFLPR
Kind of data set: Inhibition of CYP2B6 (unknown origin). The format is ADME.

Calls of active or inactive are those of the source. No cut-off for these calls is given here.

Chain of Cytochrome P450 3A4 (P08684 whole entry): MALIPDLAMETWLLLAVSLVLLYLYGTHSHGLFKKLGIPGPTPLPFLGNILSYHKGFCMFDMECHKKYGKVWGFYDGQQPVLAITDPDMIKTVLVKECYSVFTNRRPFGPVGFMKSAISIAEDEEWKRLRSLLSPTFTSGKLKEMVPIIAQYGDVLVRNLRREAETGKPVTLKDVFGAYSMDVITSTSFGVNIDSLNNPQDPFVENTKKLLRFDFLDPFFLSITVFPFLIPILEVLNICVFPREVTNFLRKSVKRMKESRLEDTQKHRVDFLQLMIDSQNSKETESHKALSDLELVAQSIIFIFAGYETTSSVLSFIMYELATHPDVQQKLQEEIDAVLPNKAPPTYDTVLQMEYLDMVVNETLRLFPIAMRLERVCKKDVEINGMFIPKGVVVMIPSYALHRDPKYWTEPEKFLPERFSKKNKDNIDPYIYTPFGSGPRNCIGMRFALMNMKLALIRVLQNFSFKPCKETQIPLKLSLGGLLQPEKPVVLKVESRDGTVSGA
Chain of Voltage-gated inwardly rectifying potassium channel KCNH2 (Q12809 whole entry): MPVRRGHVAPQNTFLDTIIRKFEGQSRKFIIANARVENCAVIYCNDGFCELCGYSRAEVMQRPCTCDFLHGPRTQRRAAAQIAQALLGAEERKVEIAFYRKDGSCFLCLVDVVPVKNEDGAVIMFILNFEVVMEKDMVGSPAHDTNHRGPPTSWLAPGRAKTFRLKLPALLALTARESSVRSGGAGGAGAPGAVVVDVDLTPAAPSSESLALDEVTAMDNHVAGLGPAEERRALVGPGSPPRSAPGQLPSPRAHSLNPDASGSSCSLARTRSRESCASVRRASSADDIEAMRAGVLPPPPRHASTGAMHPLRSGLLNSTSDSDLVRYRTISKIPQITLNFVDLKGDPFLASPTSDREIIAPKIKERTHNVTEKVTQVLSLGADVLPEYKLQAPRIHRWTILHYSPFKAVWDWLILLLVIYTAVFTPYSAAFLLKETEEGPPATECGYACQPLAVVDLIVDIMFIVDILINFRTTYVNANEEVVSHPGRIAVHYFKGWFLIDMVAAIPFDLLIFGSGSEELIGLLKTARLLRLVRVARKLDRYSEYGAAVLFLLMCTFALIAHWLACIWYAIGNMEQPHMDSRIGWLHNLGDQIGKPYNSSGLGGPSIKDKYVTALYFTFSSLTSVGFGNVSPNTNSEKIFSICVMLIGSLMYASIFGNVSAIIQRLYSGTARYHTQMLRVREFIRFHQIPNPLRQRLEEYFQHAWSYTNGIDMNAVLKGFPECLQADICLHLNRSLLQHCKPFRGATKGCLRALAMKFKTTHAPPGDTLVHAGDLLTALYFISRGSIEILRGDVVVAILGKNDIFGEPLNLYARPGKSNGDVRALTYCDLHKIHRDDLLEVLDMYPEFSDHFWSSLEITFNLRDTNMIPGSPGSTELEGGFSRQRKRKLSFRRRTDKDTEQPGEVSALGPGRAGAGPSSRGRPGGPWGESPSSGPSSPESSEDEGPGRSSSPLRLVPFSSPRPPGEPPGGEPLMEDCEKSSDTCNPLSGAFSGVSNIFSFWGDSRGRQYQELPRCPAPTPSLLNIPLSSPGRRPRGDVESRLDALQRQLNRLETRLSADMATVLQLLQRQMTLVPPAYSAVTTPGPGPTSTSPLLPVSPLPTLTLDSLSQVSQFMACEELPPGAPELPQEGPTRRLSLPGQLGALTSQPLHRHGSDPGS
Chain of DNA topoisomerase 2-alpha (Homo sapiens) (P11388 whole entry): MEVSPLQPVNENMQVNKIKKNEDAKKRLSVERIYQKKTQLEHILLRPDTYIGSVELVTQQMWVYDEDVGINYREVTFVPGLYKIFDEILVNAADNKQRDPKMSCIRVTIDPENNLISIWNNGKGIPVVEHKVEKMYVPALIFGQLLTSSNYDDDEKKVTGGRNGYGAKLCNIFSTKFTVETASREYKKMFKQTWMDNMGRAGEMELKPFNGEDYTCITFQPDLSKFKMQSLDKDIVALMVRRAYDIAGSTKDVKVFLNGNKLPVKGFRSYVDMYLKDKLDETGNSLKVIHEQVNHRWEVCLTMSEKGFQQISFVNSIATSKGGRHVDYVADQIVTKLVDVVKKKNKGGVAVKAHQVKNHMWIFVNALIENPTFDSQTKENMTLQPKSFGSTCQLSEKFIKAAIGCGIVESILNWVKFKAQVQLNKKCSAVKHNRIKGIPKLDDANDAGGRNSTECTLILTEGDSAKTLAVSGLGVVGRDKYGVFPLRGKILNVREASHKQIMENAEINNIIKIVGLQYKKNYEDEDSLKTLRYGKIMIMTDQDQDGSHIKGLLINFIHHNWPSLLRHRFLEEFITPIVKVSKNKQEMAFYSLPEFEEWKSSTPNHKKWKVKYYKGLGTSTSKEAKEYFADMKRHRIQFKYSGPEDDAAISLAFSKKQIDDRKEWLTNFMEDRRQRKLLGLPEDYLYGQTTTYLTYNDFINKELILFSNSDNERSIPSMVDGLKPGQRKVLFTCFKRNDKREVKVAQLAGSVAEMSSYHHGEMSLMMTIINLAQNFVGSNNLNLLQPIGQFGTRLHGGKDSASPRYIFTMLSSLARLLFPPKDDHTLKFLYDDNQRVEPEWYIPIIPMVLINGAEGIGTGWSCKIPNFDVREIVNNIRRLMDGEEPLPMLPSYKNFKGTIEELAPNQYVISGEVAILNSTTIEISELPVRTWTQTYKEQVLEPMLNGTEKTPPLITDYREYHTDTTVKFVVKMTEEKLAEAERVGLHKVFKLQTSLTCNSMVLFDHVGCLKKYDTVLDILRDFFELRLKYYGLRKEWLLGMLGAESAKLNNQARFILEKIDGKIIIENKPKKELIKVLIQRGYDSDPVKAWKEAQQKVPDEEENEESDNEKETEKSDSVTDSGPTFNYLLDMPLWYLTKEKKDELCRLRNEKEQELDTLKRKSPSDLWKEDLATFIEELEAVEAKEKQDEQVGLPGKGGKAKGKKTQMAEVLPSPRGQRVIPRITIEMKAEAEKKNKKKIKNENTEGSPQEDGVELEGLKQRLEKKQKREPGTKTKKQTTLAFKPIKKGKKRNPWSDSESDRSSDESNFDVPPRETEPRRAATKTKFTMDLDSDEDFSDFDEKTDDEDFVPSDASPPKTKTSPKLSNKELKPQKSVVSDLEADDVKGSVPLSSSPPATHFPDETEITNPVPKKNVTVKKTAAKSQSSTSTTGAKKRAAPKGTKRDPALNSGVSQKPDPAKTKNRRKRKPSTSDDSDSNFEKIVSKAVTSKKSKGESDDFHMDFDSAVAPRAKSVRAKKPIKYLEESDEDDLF

`COc1ccc2c3c([nH]c2c1)[C@@H]1N(CC3)C(=O)c2c(OC)cccc2N1C`: the inhibition result in data set [1] is “inactive”. Moreover, the 50% inhibitory concentration (IC50) in data set [2] is 20 µM; against Cytochrome P450 3A4, 10 µM; against Cytochrome P450 2B6, 10 µM. In data set [3], the bioavailability came to 14%. In addition, in data set [4], the Tmax came out at 49.8 min. This compound registered an area under the curve AUC(0-t) at 24 h in data set [5] of 146 ng·h/mL. In addition, in the data set with Rattus norvegicus, the result was Active.

These data come from ChEMBL document CHEMBL4725363 (J Med Chem, 2020).
